In patent publication US6900010B2, “Compositions and methods for detecting human immunodeficiency virus” (MUSC Foundation For Research Development, priority 1999, dated 2005):

System: HIV (strain GRCSF) in HeLaD4R4 cells
Test: HIV infection of HeLaD4R4 cells with lacZ reporter, X-gal staining
Type: cell-based
Source text: A recombinant cell line was established from human cervical cancer HeLa cells. The HeLa cells were cotransfected with an expression vector (pRepD4R4) and a vector (pTAR3Clac) at a 1:1 ratio. As shown in FIG. 2A the expression vector pRepD4R4 includes CD4 receptor and CXCR4 receptor genes that are separated by an IRES sequence. As shown FIG. 2B the vector pTAR3Clac includes a reporter sequence comprising a promoter region that includes three copies of TAR sequences and a CMV basic promoter, and a lacZ reporter gene whose expression is under the control of the promoter. The stably-transfected cells were selected by culturing in medium containing G418 at 900 μg/ml. Each clone of the cells selected was subsequently cultured in duplicates, and one of the duplicates was infected with a low titer HIV stock solution. The low-titer HIV stock was collected from supernatant of a HeLa cell culture that was transfected with a B-cell tropic HIV provirus DNA (strain GRCSF) and incubated for 3 days post transfection.
Upon infection of HIV contained in the stock solution, Tat protein expressed from the viral genome binds to TAR and induces expression of lacZ reporter gene to produce high level of β-galactosidase. The cell clones expressing β-galactosidase and stained blue with X-gal were identified, and the cells from the uninfected duplicate of the darkest blue colony were propagated. […]

Structure (SMILES): Cc1cn([C@H]2C[C@H](N=[N+]=[N-])[C@@H](CO)O2)c(=O)[nH]c1=O [AZT, zidovudine]
- cells infected and stained blue (HIV replication and infection) (AZT 100 μg/ml, four days of incubation, HeLaD4R4 cells): only a few clusters of cells were infected and stained blue
- expression of the reporter gene (in the presence of AZT, FIG. 3F compared with FIGS. 3B-3E): significantly reduced
